From patent publication US20100222365A1, “SUBSTITUTED TRIAZOLE DERIVIATIVES AS OXYTOCIN ANTAGONISTS” (Pfizer Inc, priority 2005, published 2010)

Molecular target: T1, Oxytocin receptor (CHO-OTR/NFAT-β-Lactamase cells) (Homo sapiens, UniProt P30559)
T1 construct: expressed in transfected cells; host or cells: CHO-OTR cell line, further transfected with the NFAT-β-lactamase reporter construct
T1 sequence (P30559 1-389): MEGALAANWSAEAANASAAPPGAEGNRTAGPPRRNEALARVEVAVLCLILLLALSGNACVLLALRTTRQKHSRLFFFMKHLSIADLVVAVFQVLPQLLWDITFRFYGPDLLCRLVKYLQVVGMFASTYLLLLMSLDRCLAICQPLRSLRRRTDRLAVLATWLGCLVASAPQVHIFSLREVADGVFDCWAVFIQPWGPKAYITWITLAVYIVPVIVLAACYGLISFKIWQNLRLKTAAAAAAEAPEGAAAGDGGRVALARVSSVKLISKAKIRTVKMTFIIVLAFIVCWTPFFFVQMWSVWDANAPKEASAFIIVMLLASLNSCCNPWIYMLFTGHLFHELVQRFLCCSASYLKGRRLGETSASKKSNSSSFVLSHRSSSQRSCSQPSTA
Experiment: Oxytocin Receptor Beta-lactamase Assay
Assay type: cell-based
Settings: oxytocin stimulation 4 hours, read-out: Oxytocin antagonist activity, expressed as a Ki value
Method: A suitable assay for determining the Oxytocin antagonist activity of a compound is detailed herein below.
Oxytocin Receptor Beta-lactamase Assay:
Cell Culture: Cells used are CHO-OTR/NFAT-β-Lactamase. The NFAT-β-lactamase expression construct was transfected into the CHO-OTR cell line and clonal populations were isolated via fluorescence activated cell sorting (FAGS). An appropriate clone was selected to develop the assay.
Culturing cells—CHO-OTR-NFAT-βLactamase cells were grown in growth medium. Cells were harvested when they reached 80-90% confluence removing the medium and washing with pre-warmed PBS. […]
Cells grown at 80-90% confluence were harvested and counted. […]
Preparation of 1 ml of 6× Loading Buffer with Enhanced Loading Protocol (this requires scale-up according to number of plates to be screened) • 12 μl of solution A (1 mM CCF4-AM in Dry DMSO) was added to […] of solution B (100 mg/ml Pluronic-F127 in DMSO+0.1% Acetic Acid) and vortexed. • The resulting solution was added to 925 μl of solution C (24% w/w PEG400, 18% TR40 v/v in water). • 75 μl of solution D was added (200 mM probenecid in 200 mM NaOH). • 10 μl of 6× Loading Buffer was added to all wells and incubated for 1.5 hrs-2 hrs at room temperature in the dark. • The plates were read using an UL Analyst, Excitation 405 nm, Emission 450 nm and 530 nm, gain optimal, lagtime 0.40 μs integration, 4 flashes, bottom reading.

Ki: 5.5 nM
Structure (SMILES): COc1ccc(-n2c(C)nnc2-c2cnc(Oc3cccc(C)c3C)cn2)cn1 [Example 6]
